Consider 133 compounds from the OPERA property sets (Mansouri et al. 2018).

The structures appear in SMILES notation. Peptide text beside a SMILES is read from it.

Settings in one data set: not given
Broadly, the logP is the decadic logarithm of the partition coefficient of the neutral form, usually between octanol and water. High values mean a more lipophilic compound, low ones a more hydrophilic compound. Compound `CCOC(=O)[C@H](CCc1ccccc1)N[C@@H](C)C(=O)N1CCC[C@H]1C(=O)O` returned a logP of 0.07.
Same read-out and setting: for `O=C1CCC(=O)N1c1ccccc1I` the value was 0.8; for `CC(=O)NCC(=O)N[C@@H](Cc1ccccc1)C(N)=O` (Ac-Gly-Phe-NH2), -0.56.
The same measure, in the same setting: the same measure for `O=C(NCC(O)CO)c1c(I)c(C(=O)NCC(O)CO)c(I)c(N(CCO)C(=O)CO)c1I` (stereo not drawn): -2.98; for `CCOC(=O)CON=Cc1ccc(OCCOC(=O)CC)c(OC)c1`: 2.39; for `C1CCc2nnnn2CC1`: 0.14.
The compound `CNc1ccccc1C` returned a logP of 2.16.
`Cc1ncc([N+](=O)[O-])n1CCS(=O)(=O)C(C)C` displayed a logP of 0.13.
For the compound `CC(C)I`, the logP is 2.89.
Consider `CCCOc1c(OC)cc(CCN)cc1OC`, for which the logP was found to be 1.7.
`Cc1cccc(C(N)=O)c1` came in with a logP of 1.18.
The compound `Oc1cnc2ccccc2n1` showed a logP of 0.8.
With `O=C1CN=C(c2ccccc2C(F)(F)F)c2ccccc2N1`, the logP is 2.47.
As to `COc1ccc2c(c1)N(CCCN(C)C)c1ccccc1S2`, the lipophilicity (logP) came out at 4.9.
For `Clc1ccc(Cl)c(Cl)n1`, the logP is 2.77.
Still for that read-out and setting: for `CCN(CC)CCNC(=O)c1cc([N+](=O)[O-])c(N)cc1OC` the value was 2.11; for `CCCCOc1ccc([N+](=O)[O-])cc1`, 3.5.
`CC(=O)O[C@H]1C[C@H](O[C@H]2[C@@H](O)C[C@H](O[C@H]3[C@@H](O)C[C@H](O[C@H]4CC[C@@]5(C)[C@H](CC[C@@H]6[C@@H]5C[C@@H](O)[C@]5(C)[C@@H](C7=CC(=O)OC7)CC[C@]65O)C4)O[C@@H]3C)O[C@@H]2C)O[C@H](C)[C@H]1O[C@@H]1O[C@H](CO)[C@@H](O)[C@H](O)[C@H]1O`: the logP was 0.07.
Take `O=C(O)COc1ccc(O)cc1`: the logP came to 0.65.
On the same count and under the same terms, the same measure for `Nc1nncc2ccccc12`: 0.82; for `NC(=S)c1ccccc1N`: 0.99.
In turn, `COC(=O)c1ccccc1C(=O)O` displayed a log partition coefficient (logP) of 1.13.
Compound `CCc1cccc(S(I)=C(N(C)C)N(C)C)c1` (stereo not drawn) came in with a logP of 0.34.
In turn, `COc1nccnc1NS(=O)(=O)c1ccc(N)cc1` registered a logP of 0.7.
The same measure, in the same setting: for `CC(=O)Nc1ccc([N+](=O)[O-])cc1` the value was 1.66; for `FC(F)(F)F`, 1.18; for `c1ccc(N2CCOCC2)cc1`, 1.36.
On to `Oc1ccc(Cc2ccc(O)cc2)cc1`, for which the logP is 2.91.
For `Oc1cccc(Cl)c1Cl`, the logP is 2.84.
In the case of `CC(=O)NO`, the log partition coefficient (logP) is -1.59.
In turn, `CC1(C)N=C(N)N=C(N)N1c1ccc(F)cc1` had a logP of 0.37.
`CC(=O)OC1C(=O)C2(C)C(O)CC3OCC3(OC(C)=O)C2C(OC(=O)c2ccccc2)C(C)(O)C2(C)CC(OC(=O)C(C)O)C(C)=C12` (stereo not drawn) yielded a lipophilicity (logP) of 1.52.
In turn, `O=c1cccccc1O` came in with a logP of 0.53.
On the same count and under the same terms, the same measure for `CC(=O)Oc1cccc2ccccc12`: 2.78.
As to `CCC1=Nc2ccc(Cl)cc2S(=O)(=O)N1`, the logP came out at 1.62.
As for `Oc1cccc(O)c1`, the logP amounted to 0.8.
On to `C=CC(=O)O`, for which the logP came out at 0.35.
On the same count and under the same terms, the same measure for `C[n+]1cccc2ccccc21.[Br-]`: -2.64.
`COC(=O)C(Cl)(Cl)Cl` had a logP of 2.03.
In the case of `Clc1ccc(-c2ccccc2)cc1`, the logP was determined as 4.61.
The compound `Oc1ccccc1C(F)(F)F` displayed a logP of 2.8.
The compound `O=C1CC(=O)c2ccccc21` returned a logP of 0.61.
The compound `CCCCN` had a logP of 0.97.
In turn, `OC[C@H]1O[C@@H](Oc2ccc(O)cc2)[C@H](O)[C@@H](O)[C@@H]1O` had a lipophilicity (logP) of -1.35.
In turn, `CCCCN(C)C` came in with a logP of 1.7.
Turning to `Nc1nc2nc[nH]c2c(=S)[nH]1`, the logP is -0.07.
With `COC(=O)c1ccccc1C`, the log partition coefficient (logP) stood at 2.75.
Compound `CC=CC=CC` (mixture of isomers) yielded a logP of 2.8.
As for `C=CCCCCCCCCC(=O)O`, the log partition coefficient (logP) stood at 3.86.
Turning to `CN(C)C(N(C)C)=S(I)c1ccc(O)cc1` (stereo not drawn), the logP was -0.88.
Turning to `CN(C)C1=CC(=O)C(N(C)C)=CC1=O`, the logP stood at 1.03.
The compound `O=C1NCN(c2ccccc2)C12CCN(CCCC(c1ccc(F)cc1)c1ccc(F)cc1)CC2` came in with a logP of 5.86.
The compound `CC(C)c1cnc(NS(=O)(=O)c2ccc(N)cc2)nc1` registered a logP of 1.23.
`[O-][n+]1ccccc1` had a logP of -1.2.
The same measure, in the same setting: for `COc1ccc(OC)c(N)c1` the value was 1.2.
Turning to `CC(=O)NC(CO)C(O)c1ccc([N+](=O)[O-])cc1` (stereo not drawn), the logP was -0.03.
Regarding `CCCCOCc1cccc(NC(=O)OCCN2CCCCC2)c1`, the logP was 3.73.
As to `Cc1cccc2c(N)cnnc12`, the lipophilicity (logP) worked out at 1.57.
Same read-out and setting: for `Nc1ccc2ncccc2c1` the value was 1.28.
Compound `C=C1C[C@]23C[C@@]1(O)CC[C@H]2[C@@]12C=C[C@H](O)[C@@](C)(C(=O)O1)[C@H]2[C@@H]3C(=O)O` yielded a logP of 0.24.
As for `CN(C)c1cccc2cccnc12`, the logP was 2.73.
In the case of `O=C(COc1ccccc1)NNCc1ccccc1`, the logP was found to be 2.16.
Still for that read-out and setting: for `CCCCCOc1cc(N)ccc1C(=O)O` the value was 2.38; for `CC12CCC(O)CC1CCC1C2CCC2(C)C(C3=CC(=O)OC3)C(O)CC12O` (stereo not drawn), 1.6.
Turning to `OCc1ccc2c(c1)OCO2`, the logP was determined as 1.05.
The compound `Nc1ccc([N+](=O)[O-])cc1N` registered a logP of 0.88.
For `O=C1C=CC(=NBr)C=C1`, the log partition coefficient (logP) amounted to 1.12.
On the same count and under the same terms, the same measure for `C(=NN1CCCCC1)c1ccccc1`: 3.04; for `O=C(O)Cc1ccc(OCCc2ccccc2)c(Cl)c1`: 3.53; for `C[C@](N)(C(=O)O)c1cccc2ccccc12`: -0.22.
`O=S(=O)(O)c1ccc2ccccc2c1`: the logP amounted to 0.63.
Regarding `CC(N)=S`, the logP was -0.26.
Regarding `Nc1ccc(/N=N/c2ccccc2)cc1`, the logP was 3.41.
On the same count and under the same terms, the same measure for `CCOP(=S)(OCC)SCCSCC`: 4.02; for `OC12CC3CC(CC(C3)C1)C2`: 2.14.
The compound `NNC(=O)c1ccnc(-c2ccccc2)c1` had a logP of 1.36.
In the case of `CN(C)C(=O)N(c1ccccc1)c1ccccc1`, the lipophilicity (logP) was determined as 2.8.
As to `NC(=O)C(=Cc1cccc(F)c1)C(N)=O`, the logP came out at 0.1.
In the case of `COc1ccc2cc(C(C)C(=O)OCC(=O)N(C)CC(N)=O)ccc2c1` (stereo not drawn), the logP was 1.37.
For the compound `CCCC(NC(C)=O)C(N)=O` (stereo not drawn), the logP was -0.45.
Still for that read-out and setting: for `NC(=O)Cc1cccnc1` the value was -0.71.
Regarding `CCN(CC)C(=O)C(C)Oc1cccc2ccccc12` (stereo not drawn), the logP amounted to 3.36.
The compound `CN(C)CCCNC(=O)c1ccccc1` showed a logP of 1.27.
The compound `CS(=O)(=O)c1ccc(Cl)cc1` showed a logP of 1.06.
Still for that read-out and setting: for `COc1cc(CC(C)N)cc(OC)c1Br` (stereo not drawn) the value was 2.44; for `CSc1cccc(NC(N)=O)c1`, 1.57.
On the same count and under the same terms, the same measure for `CCCCOc1cc(C(=O)NCCN(CC)CC)c2ccccc2n1`: 4.4; for `CCOC(=O)c1ccc(NC(=O)N(C)OC)cc1`: 2.24; for `NN(c1ccccc1)c1ccccc1`: 2.8.
As for `O=C1c2ccccc2Cc2ccccc21`, the logP was found to be 3.66.
`CCCCOC(=O)c1cccnc1` had a log partition coefficient (logP) of 2.27.
Take `CC(=O)c1ccccc1S(I)=C(N(C)C)N(C)C` (stereo not drawn): the logP was -0.81.
On the same count and under the same terms, the same measure for `Cc1cccc(C)c1C`: 3.66; for `CCCCNC(N)=O`: 0.41.
Compound `CC[N+](=O)[O-]` had a lipophilicity (logP) of 0.18.
`CNCCNC` showed a logP of -0.62.
Same read-out and setting: for `C#CC` the value was 0.94; for `O=c1[nH]cc(Cl)c(=O)[nH]1`, -0.35.
In turn, `OC(O)C(Cl)(Cl)Cl` returned a log partition coefficient (logP) of 0.99.
As for `CCCNc1nc(NC(C)C)nc(SC(F)F)n1`, the logP was 4.23.
Turning to `FCF`, the logP is 0.2.
Take `Cc1c(Cl)cccc1Nc1ccccc1C(=O)O`: the log partition coefficient (logP) stood at 5.17.
On to `CCCOP(=O)(OCCC)Oc1ccc(SC)cc1`, for which the logP was found to be 3.67.
On to `O=I(=O)c1ccccc1`, for which the logP was -1.33.
Consider `Oc1c(O)c(Cl)c(Cl)c(Cl)c1Cl`, for which the log partition coefficient (logP) is 4.29.
The compound `CCCCCCCCOc1ccc(NC(=O)OCCN2CCCCC2)cc1` returned a logP of 6.44.
Take `CCOc1ccc2nc(S(N)(=O)=O)sc2c1`: the logP came out at 2.01.
In turn, `NCCCCc1ccccc1` returned a logP of 2.4.
On to `CNc1ccccc1`, for which the logP was 1.66.
`Cc1cccc(N(C)C)c1` returned a logP of 2.8.
On the same count and under the same terms, the same measure for `COc1cc(Cl)c(Cl)cc1O`: 3.26; for `NC(=O)Cc1cccs1`: 0.33; for `CNC(=O)Oc1ccc2ccccc2c1`: 2.56.
Compound `O=C(O)CCCCN1C(=O)C=CC1=O` had a lipophilicity (logP) of 0.6.
As for `CC=CC` (mixture of isomers), the logP turned out to be 2.33.
`COc1ccccc1NC(C)=O` yielded a logP of 0.67.
On the same count and under the same terms, the same measure for `CC(=O)Oc1ccccc1C#N`: 1.33; for `CN(C)/N=N/c1ccccc1I`: 3.5; for `Cc1ccco1`: 1.85.
For `COc1cc([C@@H]2c3cc4c(cc3C(O[C@@H]3O[C@@H]5CO[C@@H](C)O[C@H]5[C@H](O)[C@H]3O)C3COC(=O)[C@@H]32)OCO4)cc(OC)c1O` (stereo partly drawn), the logP was 0.6.
The compound `CC(=O)NC(Cc1ccc(O)cc1)C(N)=O` (stereo not drawn) came in with a lipophilicity (logP) of -0.87.
On the same count and under the same terms, the same measure for `NCCNC(=O)c1ccccc1`: 0.06; for `NC(=O)C(Cl)Cl`: 0.19; for `Cc1cccc2cccc(C)c12`: 4.26.
The same measure, in the same setting: for `CN(C)c1ccc2c(c1)C(c1ccccc1Cl)=NCC(=O)N2C` the value was 2.72.
In the case of `CC(C)NNC(=O)COc1ccccc1Cl`, the logP was found to be 1.82.
On the same count and under the same terms, the same measure for `COc1c(O)c(OC)c(Cl)c(Cl)c1Cl`: 3.74; for `O=[N+]([O-])c1cccc2cc[nH]c12`: 2.63.
With `COc1ccc(C(=O)N(C)C)cc1`, the lipophilicity (logP) turned out to be 0.96.
The compound `O=[N+]([O-])c1ccc2[nH]nnc2c1` displayed a logP of 1.95.
Still for that read-out and setting: for `CC(C)(C)[N+](=O)[O-]` the value was 1.17.
The same measure, in the same setting: the same measure for `NS(=O)(=O)c1ccc(Br)cc1`: 1.36.

Still in this data set, the particulars now being: pH 5.0.
One may read the logD as the decadic logarithm of the distribution of all forms, ionised or not, between an organic phase and buffer at a given pH. Low readings indicate lower lipophilicity, high ones higher lipophilicity. In turn, `N=C(NCCCCCCNC(=N)NC(=N)Nc1ccc(Cl)cc1)NC(=N)Nc1ccc(Cl)cc1` displayed a logD of 0.08.
